Assay results: ChEMBL document CHEMBL3271946, “Synthesis and adrenoreceptor blocking action of aziridinium ions derived from phenoxybenzamine and dibenamine” (J Med Chem, 1976)
The source made the active and inactive calls. The rule behind the calls is not given here.

Assays:
[1] = biological target: T1, Adrenergic receptor alpha (Rattus norvegicus) (UniProt P15823+P23944+P43140+P22086+P19328+P22909); experiment: Antagonist activity at alpha-adrenergic receptor in blockade of norepinephrine-induced response in rat vas deferens after 3 mins measured after compound washout; type: tissue-based
[2] = test system: Vas deferens; experiment: Blockade of serotonin-induced response in rat vas deferens after 3 mins; type: functional, tissue-based
[3] = Half life in 0.025 M NaHCo3 solution assessed as compound cyclization at 5x10'-4 M; type: physicochemical
[4] = Half life in 80% aqueous Me2CO solution assessed as compound cyclization at 5x10'-4 M; type: physicochemical; conditions: 80% aqueous acetone (Me2CO) solution
[5] = biological target: T1, Adrenergic receptor alpha (Rattus norvegicus); experiment: Antagonist activity at alpha-adrenergic receptor in blockade of norepinephrine-induced response in rat vas deferens after 3 mins; type: tissue-based
[6] = Half life in krebs solution assessed as hydrolysis at 0.003 M at 37 degC; type: physicochemical

With CC(COc1ccccc1)N(CCCl)Cc1ccccc1.Cl (stereo not drawn) [PHENOXYBENZAMINE HYDROCHLORIDE] the inhibition [1] was “Active”, the inhibition [2] was “Active” and the half-life at 500 µM [3] was 2.3 min. The half-life at 500 µM [4] was 0.61 min and the inhibition [5] was “Active”.

In the case of [O-][Cl+3]([O-])([O-])[O-].c1ccc(C[N+]2(Cc3ccccc3)CC2)cc1, the inhibition [1] was “Active”, the inhibition [2] was “Active” and the half-life at 0.003 M [6] was 14 min. For the same compound, the inhibition [5] was “Active”.

In the case of Cl.ClCCN(Cc1ccccc1)Cc1ccccc1, the inhibition [1] was “Active”, the inhibition [2] was “Active” and the half-life at 500 µM [3] was 6.1 min. For the same compound, the half-life at 500 µM [4] was 1.6 min and the inhibition [5] was “Active”.

For CC(COc1ccccc1)[N+]1(Cc2ccccc2)CC1.[O-][Cl+3]([O-])([O-])[O-] (stereo not drawn), the inhibition [1] was “Active”, the inhibition [2] was “Active” and the half-life at 0.003 M [6] was 19 min. For the same compound, the inhibition [5] was “Active”.
